# Marks after values point to notes of the source that are not given here. Peptide text beside a SMILES is read from it.
# Columns and labels:
# [1] = target: T1, DPP IV activity in HepG2 cells (Homo sapiens, UniProt P27487); assay: Luminescence DPP IV assay in the cell‐based system (HepG2); details: 24 h treatment; for IC20: read-out: DPP IV inhibition IC20
# T1 construct: dose‐response in vitro experiments conducted using the HepG2 cell culture; host or cells: HepG2
# Procedure: (§1) HepG2 cells were seeded in either 96‐well plates or 6‐well plates for 24 h. For the healthy cell model (NG), cells were incubated in a medium with a healthy/normal glucose level (5.5 mM glucose), and no stimulation was performed. For the insulin‐resistant cell model (HG), cells were stimulated according to the methods used in a previous publication. In brief, cells were treated for 24 h using 25 mM glucose with 100 nM insulin to stimulate insulin resistance in the HepG2 cells. After seeding or insulin‐resistant stimulation, the cells were treated with selected pure AB7S peptides, selected pure S7S peptides, peptide Asp‐Leu‐Asp‐Val (DLDV; peptide with no DPP IV inhibitory capacity), or 1 nM linagliptin (DPP IV inhibitor) for 24 h. […] Treated cells were used to either perform cell viability assays or were collected, centrifuged, and stored at −80°C until being used.
# DPP IV inhibition was measured using the luminescence DPPIV‐GLO Protease assay (G8351, Promega, Madison, WI). In brief, treated cells were incubated with three concentrations of selected pure AB7S peptides or selected pure S7S peptides for 24 h, and linagliptin (1 nM) was used as a positive control. Treated cells were collected and stored at −80°C for no more than one week until being used for the DPPIV‐GLO protease assay. Percent inhibition was calculated, and results were presented as percent inhibition per log (µg peptide/mL). The IC values of the peptides were calculated using Origin Pro software (Version 2021, OriginLab Corporation, Northampton, MA, USA).
# [2] = target: purified human DPP IV enzyme (Homo sapiens, UniProt P27487); assay: Luminescence DPPIV‐GLO DPP IV inhibition biochemical assay (cell‐free system)
# Procedure: The luminescence DPPIV‐GLO Protease assay (G8351, Promega, Madison, WI) was performed to measure the DPP IV inhibitory capacity of selected AB7S peptides and S7S peptides. Percent inhibition was calculated for each sample. Results were presented as percent inhibition per log (µg peptide/mL). The inhibitory concentration (IC) values of the peptides were calculated using Origin Pro software (Version 2021, OriginLab Corporation, Northampton, MA, USA).
# [3] = system: ACCα; assay: Western blot ACCα protein expression in HepG2 cells; type: cell-based, human; details: VP 9.58 µM, IPA 7.86 µM, DLDV 1790 µM, 24 h; for ACCα protein expression, change versus untreated controls: healthy state (NG, 5.5 mM glucose), linagliptin 1 nM; for ACCα protein expression, change versus untreated insulin‐resistant cells: insulin‐resistant state (HG, 25 mM glucose with 100 nM insulin)
# Procedure: as §1
# (§2) Cells treated with VP (9.58 µM), IPA (7.86 µM), DLDV (1790 µM), or linagliptin (1 nM) and untreated cells were used for western blot. In brief, membranes were incubated with conjugated antibodies for human IRS‐1 (sc‐8038 HRP, 1:100) and Akt‐1 (sc‐5298 HRP, 1:100), or ACCα (sc‐137104 HRP, 1:100) overnight at 4°C and washed. Membranes were also incubated with unconjugated primary antibodies for human Glut 2 (07‐1402, 1:1000), then washed and probed with secondary sheep anti‐mouse and donkey anti‐rabbit antibodies (NA931V and NA934V, 1:2500, 2 h, room temperature; Cytiva, Marlborough, MA, USA). GAPDH (sc‐25778 HRP or sc‐47724, 1:4000) was used as the protein loading control and was used to evaluate the relative expression of each protein. Clarity Western ECL Substrate (Bio‐Rad, Hercules, CA, USA) and ImageQuant 800 System (GE Healthcare, Buckinghamshire, UK) were used for imaging.
# [4] = system: IRS‐1; assay: Western blot IRS‐1 protein expression in HepG2 cells; type: cell-based, human; details: VP 9.58 µM, IPA 7.86 µM, DLDV 1790 µM, 24 h; for IRS‐1 protein expression, increase over untreated controls: healthy state (NG, 5.5 mM glucose), linagliptin 1 nM; for IRS‐1 protein expression, increase over untreated insulin‐resistant cells: insulin‐resistant state (HG, 25 mM glucose with 100 nM insulin)
# Procedure: as §1, §2
# [5] = system: Glut 2; assay: Glut 2 immunocytochemical fluorescence confocal microscopy in HepG2 cells; type: cell-based, human; details: VP 9.58 µM, linagliptin 1 nM; for Glut 2 fluorescence emission, higher than the untreated control: healthy state; for Glut 2 fluorescence emission, increase compared to the untreated insulin‐resistant cells: insulin‐resistant state
# Procedure: as §1
# The expression of Glut 2 due to the peptide treatment (VP, 9.58 µM) was investigated in HepG2 cells seeded in Ibidi imaging dish (Ibidi, Fitchburg, WI, USA). Cells were treated as described in Section 2.4. The positive control (1 nM linagliptin) was also tested. The immunocytochemical fluorescence confocal microscopy was performed according to a previous procedure. In brief, cells were fixed, permeabilized, blocked, and incubated with Glut 2 antibodies (07‐1402, 1:1000) overnight at 4°C. Cells were then washed twice, incubated with anti‐rabbit IgG secondary antibody (A‐11012; 1:200) for 2 h in the dark, cured with ProLong Gold Antifade Reagent with DAPI (4′,6‐diamidino‐2‐phenylindole), and stored at 4°C until imaging. Cell images were obtained with 63× oil immersion objective (Glut 2: excitation wavelength: 557 nm, emission wavelength: 572 nm; DAPI: excitation wavelength: 353 nm; emission wavelength: 465 nm) using a Carl Zeiss LSM 900 Laser Scanning Microscope (Carl Zeiss AG, Germany).
# [6] = system: Glut 2; assay: Western blot Glut 2 protein expression in HepG2 cells; type: cell-based, human; details: for Glut 2 protein expression, increase over untreated controls: healthy state (NG, 5.5 mM glucose), linagliptin 1 nM; for Glut 2 protein expression, increase over untreated controls / Glut 2 protein expression, increase over untreated insulin‐resistant cells: VP 9.58 µM, IPA 7.86 µM, DLDV 1790 µM, 24 h; for Glut 2 protein expression, increase over untreated insulin‐resistant cells: insulin‐resistant state (HG, 25 mM glucose with 100 nM insulin)
# Procedure: as §1, §2
# [7] = system: Akt‐1; assay: Western blot Akt‐1 protein expression in HepG2 cells; type: cell-based, human; details: VP 9.58 µM, IPA 7.86 µM, DLDV 1790 µM, 24 h; for Akt‐1 protein expression, increase over untreated controls: healthy state (NG, 5.5 mM glucose), linagliptin 1 nM; for Akt‐1 protein expression, increase over untreated insulin‐resistant cells: insulin‐resistant state (HG, 25 mM glucose with 100 nM insulin)
# Procedure: as §1, §2
# [8] = system: mTOR (Mechanistic target of rapamycin); assay: Insulin receptor phospho antibody microarray: mTOR; type: cell-based, human; details: VP 9.58 µM, HepG2, healthy state, related to the untreated control, p < 0.05
# Procedure: (§3) Cells treated with VP (9.58 µM) and the untreated cells were tested using immunoassay proteomics. The IC50 value of VP obtained from the luminescence‐based DPP IV inhibition biochemical assay was used as the treatment concentration. Cells were treated as described in Section 2.4. An insulin receptor microarray was performed according to the manufacturer's instructions to test the protein expression of markers in the insulin signaling pathway (Insulin Receptor Phospho Antibody Array, PIG219, Full Moon BioSystem, Sunnyvale, CA, USA). Array signals were visualized with a 20× objective using a Widefield Fluorescence Microscope (Carl Zeiss AG, Germany) and were analyzed as previously described. Student's t‐test was used to assess the differences between the VP treatment and the negative control.
# [9] = system: PP2A‐α (Protein phosphatase 2 alpha); assay: Insulin receptor phospho antibody microarray: PP2A‐α; type: cell-based, human; details: VP 9.58 µM, HepG2, healthy state, related to the untreated control, p < 0.05
# Procedure: as §3
# [10] = system: AMPK1/AMPK2 (AMP‐activated protein kinase catalytic subunit alpha‐1/2); assay: Insulin receptor phospho antibody microarray: AMPK1/AMPK2; type: cell-based, human; details: VP 9.58 µM, HepG2, healthy state, related to the untreated control, p < 0.05
# Procedure: as §3
# [11] = system: Shc (SHC‐transforming protein 1); assay: Insulin receptor phospho antibody microarray: Shc; type: cell-based, human; details: VP 9.58 µM, HepG2, healthy state, related to the untreated control, p < 0.05
# Procedure: as §3
# [12] = system: Akt (AKT serine/threonine kinase); assay: Insulin receptor phospho antibody microarray: Akt; type: cell-based, human; details: VP 9.58 µM, HepG2, healthy state, related to the untreated control, p < 0.05
# Procedure: as §3
# [13] = system: Akt1S1 (AKT1 substrate 1); assay: Insulin receptor phospho antibody microarray: Akt1S1; type: cell-based, human; details: VP 9.58 µM, HepG2, healthy state, related to the untreated control, p < 0.05
# Procedure: as §3
# [14] = system: IRS‐1 (Insulin receptor substrate 1); assay: Insulin receptor phospho antibody microarray: IRS‐1; type: cell-based, human; details: VP 9.58 µM, HepG2, healthy state, related to the untreated control, p < 0.05
# Procedure: as §3
# [15] = system: IR (Insulin receptor); assay: Insulin receptor phospho antibody microarray: IR; type: cell-based, human; details: VP 9.58 µM, HepG2, healthy state, related to the untreated control, p < 0.05
# Procedure: as §3
# T1 sequence (P27487 whole entry): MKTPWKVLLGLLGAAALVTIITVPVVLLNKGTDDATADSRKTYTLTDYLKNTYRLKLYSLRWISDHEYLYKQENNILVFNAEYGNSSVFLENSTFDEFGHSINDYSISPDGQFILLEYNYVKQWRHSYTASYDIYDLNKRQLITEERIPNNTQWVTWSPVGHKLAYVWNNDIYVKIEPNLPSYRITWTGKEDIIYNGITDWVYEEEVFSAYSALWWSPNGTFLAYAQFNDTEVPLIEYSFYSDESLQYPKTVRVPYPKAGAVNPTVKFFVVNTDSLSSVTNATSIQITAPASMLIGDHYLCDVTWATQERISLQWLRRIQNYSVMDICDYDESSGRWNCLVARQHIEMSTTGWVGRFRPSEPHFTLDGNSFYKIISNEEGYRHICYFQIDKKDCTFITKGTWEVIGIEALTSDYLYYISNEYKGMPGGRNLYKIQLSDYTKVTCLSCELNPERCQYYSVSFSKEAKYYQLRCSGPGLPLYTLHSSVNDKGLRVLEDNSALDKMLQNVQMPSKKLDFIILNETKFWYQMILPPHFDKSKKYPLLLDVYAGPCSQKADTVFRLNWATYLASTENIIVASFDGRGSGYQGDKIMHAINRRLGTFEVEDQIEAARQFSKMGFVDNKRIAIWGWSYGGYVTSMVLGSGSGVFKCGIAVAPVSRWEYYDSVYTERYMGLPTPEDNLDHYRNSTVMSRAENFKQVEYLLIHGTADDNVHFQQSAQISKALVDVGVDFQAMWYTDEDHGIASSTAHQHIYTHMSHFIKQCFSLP
# purified human DPP IV enzyme, sequence (P27487 whole entry): as above
molecule,measurement,setting,value
Phe‐Asn‐Glu [FNE],DPP IV inhibition IC5,[1],63.52 µM
same,DPP IV inhibition IC5,[2],5.65 µM
"CC#CCn1c(N2CCC[C@@H](N)C2)nc2c1c(=O)n(Cc1nc(C)c3ccccc3n1)c(=O)n2C [linagliptin, Linagliptin, reference compound]","ACCα protein expression, change versus untreated controls",[3],no changes
same,"IRS‐1 protein expression, increase over untreated controls",[4],> 50%
same,"Glut 2 fluorescence emission, higher than the untreated control",[5],36%
same,"Glut 2 fluorescence emission, increase compared to the untreated insulin‐resistant cells",[5],> 14%
same,"Glut 2 protein expression, increase over untreated controls",[6],> 25%
same,"Akt‐1 protein expression, increase over untreated controls",[7],> 25%
Leu‐Leu‐Ser [LLS],IC20,[1],7.13 µM
same,IC20,[2],40.1 µM
Asp‐Leu‐Asp‐Val [DLDV],"ACCα protein expression, change versus untreated controls",[3],no differences
same,"ACCα protein expression, change versus untreated insulin‐resistant cells",[3],no differences
same,"IRS‐1 protein expression, increase over untreated controls",[4],no differences
same,"IRS‐1 protein expression, increase over untreated insulin‐resistant cells",[4],no differences
same,"Glut 2 protein expression, increase over untreated controls",[6],no differences
same,"Glut 2 protein expression, increase over untreated insulin‐resistant cells",[6],no differences
same,"Akt‐1 protein expression, increase over untreated controls",[7],no differences
same,"Akt‐1 protein expression, increase over untreated insulin‐resistant cells",[7],no differences
"CC[C@H](C)[C@H](N)C(=O)N1CCC[C@H]1C(=O)N[C@@H](C)C(=O)O [IPA, Ile‐Pro‐Ala] (H-Ile-Pro-Ala-OH)",IC20,[1],3.66 µM
same,IC50,[1]; read-out: DPP IV inhibition IC50,7.86 µM
same,IC20,[2],33.1 µM
same,IC50,[2],70.5 µM
"CC(C)[C@H](N)C(=O)N1CCC[C@H]1C(=O)O [VP, Val‐Pro] (H-Val-Pro-OH; N-terminus and C-terminus assumed)",IC20,[1],4.69 µM
same,"ACCα protein expression, change versus untreated controls",[3],no changes
same,"ACCα protein expression, change versus untreated insulin‐resistant cells",[3],not different
same,IC20,[2],200 µM
same,mTOR Phosphorylated/Non‐phosphorylated ratio,[8],3.6^* Fold Change
same,PP2A‐α Phosphorylated/Non‐phosphorylated ratio,[9],2.6^* Fold Change
same,AMPK1/AMPK2 Phosphorylated/Non‐phosphorylated ratio,[10],3.5^* Fold Change
same,Shc Phosphorylated/Non‐phosphorylated ratio,[11],3.2^* Fold Change
same,Akt Phosphorylated/Non‐phosphorylated ratio,[12],3.9^* Fold Change
same,"IRS‐1 protein expression, increase over untreated controls",[4],> 50%
same,"IRS‐1 protein expression, increase over untreated insulin‐resistant cells",[4],> 25%
same,"Glut 2 fluorescence emission, higher than the untreated control",[5],36%
same,"Glut 2 fluorescence emission, increase compared to the untreated insulin‐resistant cells",[5],> 14%
same,Akt1S1 Phosphorylated/Non‐phosphorylated ratio,[13],1.3^* Fold Change
same,Power in increasing Glut 2 protein expression relative to the digested adzuki bean β‐vignin protein,"[6]; HepG2, comparison based on previous data",> 100 times
same,"Glut 2 protein expression, increase over untreated controls",[6],> 25%
same,"Glut 2 protein expression, increase over untreated insulin‐resistant cells",[6],> 25%
same,"Akt‐1 protein expression, increase over untreated controls",[7],> 25%
same,"Akt‐1 protein expression, increase over untreated insulin‐resistant cells",[7],> 25%
same,IRS‐1 Phosphorylated/Non‐phosphorylated ratio,[14],0.2^* Fold Change
same,IR Phosphorylated/Non‐phosphorylated ratio,[15],1.7^* Fold Change
Pro‐Met [PM],IC20,[1],5.14 µM
same,IC20,[2],59.4 µM

# Reference: PMC12700049, “Peptides From Adzuki Bean and Soybean Improved Insulin‐AKT Signaling‐Related Pathways in Healthy and Insulin‐Resistant States in Human Liver Cells” (Molecular Nutrition & Food Research, 2025)
